This test addresses T1, human CCR6 (Homo sapiens, UniProt P51684).
T1 construct: expressed in transfected cells; host or cells: HEK-293
T1 sequence (P51684 1-374): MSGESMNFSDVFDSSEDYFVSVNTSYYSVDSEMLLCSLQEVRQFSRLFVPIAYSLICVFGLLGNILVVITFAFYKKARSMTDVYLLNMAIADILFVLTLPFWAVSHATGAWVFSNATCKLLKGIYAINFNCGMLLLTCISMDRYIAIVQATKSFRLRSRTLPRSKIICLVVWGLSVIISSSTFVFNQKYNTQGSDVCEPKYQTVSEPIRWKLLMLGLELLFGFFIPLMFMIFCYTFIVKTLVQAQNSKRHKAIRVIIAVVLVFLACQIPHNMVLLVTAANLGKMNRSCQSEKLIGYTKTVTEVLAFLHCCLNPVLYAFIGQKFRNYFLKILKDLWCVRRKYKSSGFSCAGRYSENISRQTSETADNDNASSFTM
The test is described as follows: FLIPR assay: inhibition of CCL20-induced calcium signal in HEK-293 cells expressing human CCR6. Type of test: cell-based. To be noted: engineered HEK-293 cells expressing human CCR6; agonist CCL20 10 nM; 30 min preincubation; Fluo-8-AM; mean values if determined several times. The method, then:
FLIPR assay: The bioactivity of compounds is tested in a fluorometric imaging plate reader (FLIPR: Molecular Devices) using engineered HEK-293 cells expressing the human CCR6 (GenBank: AY242126). Frozen cells are plated on Poly-L-Lysine precoated 384-well plates 2 days prior to bioassay in DMEM medium supplemented with 10% FCS and 1% Penicillin-Streptomycin. At the day of bioassay, cell supernatant is discarded and cells are dye loaded for 30 minutes at room temperature in the dark with Fluo-8-AM (Focus Biomolecules) in Hanks Balanced Salt Solution (Gibco), buffered with 20 mM Hepes at pH 6.75 and supplemented with 0.05% BSA. This buffer, but lacking the dye, is also used for washing and compound dilution steps (assay buffer). Cells are washed free of excess dye with a wash-station (Biotek), leaving 40 microliter of assay buffer at the end. Cells were incubated for 15 minutes at room temperature in the dark, before adding compounds. Stock solutions of test compounds are made up at a concentration of 10 mM in DMSO, and serially diluted first in DMSO and then transferred in assay buffer to concentrations required for inhibition dose response curves. After a 45 minute incubation period in assay buffer at room temperature, 10 microliters of each compound dilution are transferred from a compound plate to the plate containing the recombinant cells in the FLIPR instrument according to the manufacturer's instructions. After cells and compounds were preincubated for 30 minutes at room temperature in the dark, 10 microliter agonist CCL20 (Peprotech) at a final concentration of 10 nM is added, again using the FLIPR instrument. Changes in fluorescence are monitored before and after addition of the test compounds and agonist. Emission peak values above base level after CCL20 addition are exported after base line subtraction. The calculated IC50 values may fluctuate depending on the daily assay performance. Fluctuations of this kind are known to those skilled in the art. In the case where IC50 values have been determined several times for the same compound, mean values are given.
Regarding `CC(C)c1ccc([C@](O)(c2cncc(-c3nc(C45CCC(C(=O)O)(CC4)CC5)n(C4CC4)n3)c2)C2(C)CN(C)C2)cc1` [Example 13, 4-(2-Cyclopropyl-5-{5-[(R)-(1,3-dimethyl-azetidin-3-yl)-hydroxy-(4-isopropyl-phenyl)-methyl]-pyridin-3-yl}-2H-[1,2,4]triazol-3-yl)-bicyclo[2.2.2]octane-1-carboxylic acid], the 50% inhibitory concentration (IC50) worked out at 0.149 µM.

As for `CC(C)c1ccc([C@](O)(c2cncc(-c3nc(C4CCOCC4)n(C4CC4)n3)c2)C2(C)CN(C(C)C)C2)cc1` [Example 34, (R)-{5-[1-Cyclopropyl-5-(tetrahydro-pyran-4-yl)-1H-[1,2,4]triazol-3-yl]-pyridin-3-yl}-(1-isopropyl-3-methyl-azetidin-3-yl)-(4-isopropyl-phenyl)-methanol], the IC50 was 0.0638 µM.

In the case of `CC(C)c1ccc([C@](O)(c2cncc(-c3nc(C4CCOCC4)n(C4CCCCC4)n3)c2)C2(C)CN(C)C2)cc1` [Example 15, (R)-{5-[1-Cyclohexyl-5-(tetrahydro-pyran-4-yl)-1H-[1,2,4]triazol-3-yl]-pyridin-3-yl}-(1,3-dimethyl-azetidin-3-yl)-(4-isopropyl-phenyl)-methanol], the IC50 came to 0.0168 µM.

For `CCn1nc(-c2cncc([C@@](O)(c3ccc(C(C)C)cc3)C3(C)CN(C)C3)c2)nc1C1CCOCC1` [Example 18, (R)-(1,3-Dimethyl-azetidin-3-yl)-{5-[1-ethyl-5-(tetrahydro-pyran-4-yl)-1H-[1,2,4]triazol-3-yl]-pyridin-3-yl}-(4-isopropyl-phenyl)-methanol], the IC50 turned out to be 0.166 µM.

With `CC(C)c1ccc([C@](O)(c2cncc(-c3nc(C4CCN(C(=O)CO)CC4)n(C(C)C)n3)c2)C2(C)CN(C)C2)cc1` [Example 44, 1-[4-(5-{5-[(R)-(1,3-Dimethyl-azetidin-3-yl)-hydroxy-(4-isopropyl-phenyl)-methyl]-pyridin-3-yl}-2-isopropyl-2H-[1,2,4]triazol-3-yl)-piperidin-1-yl]-2-hydroxy-ethanone], the IC50 worked out at 0.199 µM.

Turning to `CC(=O)N1CCC(c2nc(-c3cncc([C@@](O)(c4ccc(C(C)C)cc4)C4(C)CN(C)C4)c3)nn2C2CC2)CC1` [Example 32, 1-[4-(2-Cyclopropyl-5-{5-[(R)-(1,3-dimethyl-azetidin-3-yl)-hydroxy-(4-isopropyl-phenyl)-methyl]-pyridin-3-yl}-2H-[1,2,4]triazol-3-yl)-piperidin-1-yl]-ethanone], the IC50 turned out to be 0.181 µM.

Turning to `COC(=O)C12CCC(c3nc(-c4cncc([C@@](O)(c5ccc(C(C)C)cc5)C5(C)CN(C)C5)c4)nn3C3CC3)(CC1)CC2` [Example 10, 4-(2-Cyclopropyl-5-{5-[(R)-(1,3-dimethyl-azetidin-3-yl)-hydroxy-(4-isopropyl-phenyl)-methyl]-pyridin-3-yl}-2H-[1,2,4]triazol-3-yl)-bicyclo[2.2.2]octane-1-carboxylic acid methyl ester], the IC50 was found to be 0.0439 µM.

With `CCc1ccc([C@](O)(c2cncc(-c3nc(C4CCOCC4)n(C4CC4)n3)c2)C2(C)CN(C)C2)cc1` [Example 6, (R)-{5-[1-Cyclopropyl-5-(tetrahydro-pyran-4-yl)-1H-[1,2,4]triazol-3-yl]-pyridin-3-yl}-(1,3-dimethyl-azetidin-3-yl)-(4-ethyl-phenyl)-methanol], the IC50 was 0.124 µM.

With `CN1CC(C)([C@](O)(c2ccc(OC(F)(F)F)cc2)c2cncc(-c3nc(C4CCOCC4)n(C4CC4)n3)c2)C1` [Example 4, (R)-{5-[1-Cyclopropyl-5-(tetrahydro-pyran-4-yl)-1H-[1,2,4]triazol-3-yl]-pyridin-3-yl}-(1,3-dimethyl-azetidin-3-yl)-(4-trifluoromethoxy-phenyl)-methanol], the IC50 turned out to be 0.114 µM.

`CC(C)c1ccc([C@](O)(c2cncc(-c3nc(C4(C)CCNC(=O)C4)n(C(C)C)n3)c2)C2(C)CN(C)C2)cc1` (stereo partly drawn) [Example 45, 4-(5-{5-[(R)-(1,3-Dimethyl-azetidin-3-yl)-hydroxy-(4-isopropyl-phenyl)-methyl]-pyridin-3-yl}-2-isopropyl-2H-[1,2,4]triazol-3-yl)-4-methyl-piperidin-2-one]: the IC50 was found to be 0.193 µM.

As a reminder, the IC50 is the concentration that gives 50% inhibition.

The values above are taken from US20250042881A1, “CCR6 RECEPTOR MODULATORS” (Idorsia Pharmaceuticals Ltd, priority 2021, published 2025).
